The test system of series [1] is Ebolavirus. As to the kind of experiment: microbe, parasite or virus in culture. The format is functional, cell-based. The settings on record: Orthoebolavirus, HEK-293T.
The subject of series [2] is Vesicular stomatitis virus. Briefly: microbe, parasite or virus in culture. The following applies: HEK-293T. The format is functional, organism-based.
Series [3] is described as follows: in vitro. The following applies: human, HEK293T cells.
Series [4] is described as follows: in vitro. The settings on record: human, HEK293T cells. The source holds these as a separate data set.
The test system of series [5] is Marburgvirus. Briefly: microbe, parasite or virus in culture. The format is functional, organism-based. The following applies: Orthomarburgvirus, HEK-293T.
Series [6] is described as follows: in vitro. The settings on record: human, HEK293T cells. This is another data set of the same source.

As a reminder, the EC50 is the concentration giving half of the maximal effect. Low values mean higher potency in that assay, high ones lower potency in that assay. As a reminder, the CC50 is the concentration at which the toxic effect on the cells reaches its halfway point. With `Clc1ccc(CCN2CCCC3=C[C@H]4C[C@H](CN5CCCC[C@H]45)[C@@H]32)cc1`, the EC50 in series [1] was 6 µM; in series [2], 52.2 µM. Moreover, the half-maximal cytotoxic concentration (CC50) in series [3] was 83.3 µM. For the same molecule, in series [4], the selectivity ratio was found to be 13.9.
As for `COc1cccc(CN2CCCC3=C[C@H]4C[C@H](CN5CCCC[C@H]45)[C@@H]32)c1`, the EC50 in series [1] is 12.1 µM; in series [5], 17.8 µM; in series [2] it was 59 µM. This molecule yielded a CC50 in series [3] greater than 200 µM. For the same molecule, the figures for the selectivity ratio in series [4] and in series [6] were greater than 16.5 and greater than 11.2, respectively.
As for `N#Cc1cccc(S(=O)(=O)N2CCCC3=C[C@H]4C[C@H](CN5CCCC[C@H]45)[C@@H]32)c1`, the EC50 in series [1] was 69.4 µM; in series [5], 70.7 µM; in series [2] it was greater than 200 µM. The molecule also came in with a CC50 in series [3] greater than 200 µM. Besides, the selectivity ratio in series [4] was greater than 2.9; in series [6], greater than 2.8.
With `C1=C2CCCN[C@H]2[C@@H]2C[C@H]1[C@H]1CCCCN1C2`, the EC50 is 12.4 µM in series [1], 10.2 µM in series [5] and 103 µM in series [2]. In series [3], this molecule displayed a CC50 greater than 200 µM. Also, the selectivity ratio in series [4] was greater than 16.1; in series [6], greater than 19.6.
`Clc1ccc(CCCN2CCCC3=C[C@H]4C[C@H](CN5CCCC[C@H]45)[C@@H]32)cc1`: the figures for the EC50 in series [1] and in series [2] were 7.1 µM and 49.9 µM, respectively. Further, in series [3], the CC50 came to 74.1 µM. The selectivity ratio in series [4] was determined as 10.4.
For `Clc1cc(Cl)cc(CCCN2CCCC3=C[C@H]4C[C@H](CN5CCCC[C@H]45)[C@@H]32)c1`, in that order: 6.1 µM, 19.6 µM, 25.9 µM and 4.2.
As to `FC(F)(F)Oc1ccc(CN2CCCC3=C[C@H]4C[C@H](CN5CCCC[C@H]45)[C@@H]32)cc1`, the concentration giving a half-maximal response (EC50) in series [1] was 10.4 µM; in series [5] it was 11.9 µM; in series [2] it was 22.4 µM. In series [3], this molecule returned a CC50 of 82 µM. Also, the selectivity ratio turned out to be 7.9 in series [4] and 6.9 in series [6].
For the molecule `O=S(=O)(c1cccs1)N1CCCC2=C[C@H]3C[C@H](CN4CCCC[C@H]34)[C@@H]21`, the EC50 in series [1] was 33.2 µM; in series [5], 62.4 µM; in series [2] it was greater than 200 µM. In addition, the CC50 in series [3] is greater than 200 µM. Besides, the results for the selectivity ratio in series [4] and in series [6] were greater than 6 and greater than 3.2, respectively.
For the molecule `C1=C2CCCN(Cc3ccccc3)[C@H]2[C@@H]2C[C@H]1[C@H]1CCCCN1C2`, the EC50 in series [1] worked out at 15.2 µM; in series [5], 22 µM; in series [2], 28.3 µM. Also, the CC50 in series [3] was 168 µM. The selectivity ratio in series [4] is 11; in series [6], 7.6.
As for `Fc1ccc(CN2CCCC3=C[C@H]4C[C@H](CN5CCCC[C@H]45)[C@@H]32)cc1`, the EC50 worked out at 17 µM in series [1], 21.5 µM in series [5] and 107 µM in series [2]. The CC50 in series [3] is greater than 200 µM. Also, the selectivity ratio in series [4] is greater than 11.8; in series [6], greater than 9.3.
With `O=S(=O)(c1ccc(Cl)cc1)N1CCCC2=C[C@H]3C[C@H](CN4CCCC[C@H]34)[C@@H]21`, the results for the EC50 in series [1], in series [5] and in series [2] were 21.8 µM, 18.8 µM and 104 µM, respectively. The CC50 in series [3] was greater than 200 µM. The selectivity ratio in series [4] is greater than 9.2; in series [6], greater than 10.6.
As for `O=S(=O)(c1cc(Cl)cc(Cl)c1)N1CCCC2=C[C@H]3C[C@H](CN4CCCC[C@H]34)[C@@H]21`, the results for the concentration giving a half-maximal response (EC50) in series [1], in series [5] and in series [2] were 10.6 µM, 27.2 µM and 31.3 µM, respectively. Besides, in series [3], the CC50 is greater than 200 µM. Further, the results for the selectivity ratio in series [4] and in series [6] were greater than 18.9 and greater than 7.4, respectively.
Turning to `Cc1ccccc1CN1CCCC2=C[C@H]3C[C@H](CN4CCCC[C@H]34)[C@@H]21`, the EC50 turned out to be 16.6 µM in series [1], 15 µM in series [5] and 39 µM in series [2]. Moreover, in series [3], the CC50 was 162 µM. Moreover, the selectivity ratio in series [4] came out at 9.7; in series [6], 10.8.
`O=C(c1cc(Cl)cc(Cl)c1)N1CCCC2=C[C@H]3C[C@H](CN4CCCC[C@H]34)[C@@H]21`: the EC50 in series [1] was 39.8 µM; in series [5], 35.3 µM; in series [2] it was greater than 200 µM. In series [3], this molecule gave a CC50 greater than 200 µM. Besides, the selectivity ratio in series [4] is greater than 5; in series [6] it was greater than 5.7.
Take `O=S(=O)(c1ccc(Cl)c(Cl)c1)N1CCCC2=C[C@H]3C[C@H](CN4CCCC[C@H]34)[C@@H]21`: the EC50 stood at 24.1 µM in series [1], 10.5 µM in series [5] and 45.4 µM in series [2]. In series [3], this molecule displayed a CC50 greater than 200 µM. Further, the selectivity ratio in series [4] is greater than 8.3; in series [6], greater than 19.
With `Clc1ccc(CN2CCCC3=C[C@H]4C[C@H](CN5CCCC[C@H]45)[C@@H]32)c(Cl)c1`, the results for the EC50 in series [1], in series [5] and in series [2] were 6.6 µM, 6.4 µM and 10.6 µM, respectively. The molecule further showed a CC50 in series [3] greater than 200 µM. Also, the selectivity ratio was greater than 30.3 in series [4] and greater than 31.2 in series [6].
In the case of `Clc1cc(Cl)cc(CN2CCCC3=C[C@H]4C[C@H](CN5CCCC[C@H]45)[C@@H]32)c1`, the EC50 in series [1] was determined as 8.1 µM; in series [5] it was 8.5 µM; in series [2] it was 34.3 µM. In series [3], this molecule had a CC50 of 83.5 µM. Also, the selectivity ratio in series [4] is 10.3; in series [6], 9.8.
Take `O=C(c1ccc(Cl)cc1)N1CCCC2=C[C@H]3C[C@H](CN4CCCC[C@H]34)[C@@H]21`: the EC50 in series [1] worked out at 34.1 µM; in series [5], 112 µM; in series [2] it was 89.6 µM. In series [3], this molecule displayed a CC50 greater than 200 µM. Further, the selectivity ratio in series [4] is greater than 5.9; in series [6], greater than 1.8.
As to `O=C(c1ccc(Cl)c(Cl)c1)N1CCCC2=C[C@H]3C[C@H](CN4CCCC[C@H]34)[C@@H]21`, the values for the EC50 in series [1], in series [5] and in series [2] were 49 µM, 80.8 µM and 98.6 µM, respectively. It took 200 µM to reach half-maximal cytotoxicity in series [3] (CC50). For the same molecule, the results for the selectivity ratio in series [4] and in series [6] were 4.1 and 2.5, respectively.
Turning to `Clc1ccc(CCCN2CCCC3=C[C@H]4C[C@H](CN5CCCC[C@H]45)[C@@H]32)cc1Cl`, the EC50 in series [1] came out at 5.8 µM; in series [2] it was 23 µM. Also, the CC50 in series [3] turned out to be 29.3 µM. Moreover, in series [4], the selectivity ratio is 5.
For `Clc1ccc(CCN2CCCC3=C[C@H]4C[C@H](CN5CCCC[C@H]45)[C@@H]32)cc1Cl`, in that order: 6.8 µM, 44 µM, 51.5 µM and 7.6.
In the same order, the values of `Clc1cc(Cl)cc(CCN2CCCC3=C[C@H]4C[C@H](CN5CCCC[C@H]45)[C@@H]32)c1` are 5.7 µM, 42.5 µM, 56 µM and 9.8.

The values above are taken from ChEMBL document CHEMBL4196047, “Discovery and evolution of aloperine derivatives as novel anti-filovirus agents through targeting entry stage” (Eur J Med Chem, 2018).
